{
  "source": "patent US12350247B2",
  "about": "“Use of APE1/Ref-1 inhibitors for treatment of retinal diseases” (Indiana University Research and Technology Corporation, priority 2017, dated 2025)",
  "key": {"[1]": {"tested_on": "patient-derived Pa03C tumors with CAFs", "test": "Flank co-culture model of PDAC, APX3330 and Ruxolitinib", "format": "in vivo, mice", "description": "Treatment of the implanted tumors started on day 11 post implant. Particularly, the co-cultures implanted included 2.5×10^6 tumor cells +/−5 ×10^6 CAFs, providing a 1:2 ratio of tumor cell to CAF. […] The mice were then administered either 50 mg/kg APX3330 BID in 4% Cr:EtOH, 50 mg/kg Rux SID pm in 4% Cr:EtOH, or combinations of the agents. Treatment schedule consisted of treating for 5 days and then giving 2 days off treatment until the tumors reached an average size of 2000 mm^3."}, "[2]": {"tested_on": "human adenocarcinoma colon suspension cell line Colo-201", "test": "Alamar blue cytotoxicity combination assay (CalcuSyn)", "format": "cell-based", "description": "Colo-201 (Yunhua Liu) was seeded in a 96-well tissue culture plate at 2000 cells/well in RPMI+Sodium Pyruvate+10% FBS and grown overnight at 37° C., 5% CO2. 2× Drug Media RPMI+Sodium Pyruvate+5% FBS was added at dosages of APX3330 (Apexian) in a 5-point spread from 75 uM to 6.3 uM and spiked with CPI-613 (Apexbio Technology) at 75 uM, or 50 uM, or alone for single agent. Cells were incubated 72 hours at 37° C., 5% CO2 and then 10% Alamar blue fluorescent cell viability indicator (INVITROGEN™) was added directly to plate. Indicator was incubated 4 hours at 37° C., 5% CO2, and then read on a fluorescent reader (SYNERGY™ H4 BioTek). […] FIG. 31D depicts Chou-Talalay Index (CI) of dose combinations (CalcuSyn). FIG. 31E depicts synergistic drug combinations (CalcuSyn) of APX3330 spiked with 50 uM CPI-613 or 75 uM CPI-613. […] Data shown is the average of 3 separate cytotoxicity assays; each assay normalized to media only control."}, "pancreatic tumor": {"tested_on": "pancreatic tumor", "test": "Xenograft model, APX3330 with gemcitabine", "format": "in vivo", "details": "APX3330 (25 mg/kg) combined with gemcitabine (35 mg/kg)", "text": "The data in FIG. 14C is tumor volume at sacrifice. Combination therapy was well-tolerated."}, "[3]": {"tested_on": "mouse C26 colon cancer cells", "test": "Colon cancer orthotopic tumors, oxaliplatin with APX3330", "format": "in vivo, mice", "description": "Immune competent mice were injected with mouse C26 colon cancer cells in the caecum (FIG. 29A). Animals were treated with either oxaliplatin or oxaliplatin with APX3330 and tumor size determined compared to vehicle controls (FIG. 29B)."}, "CAFs (CAF19 cells)": {"tested_on": "CAFs (CAF19 cells)", "test": "3D spheroid co-culture, CAF signal (green channel)", "details": "for CC50: read-out: LC50, 3D Cultures, CAFs"}, "Panc10.05": {"tested_on": "Panc10.05", "test": "3D tumor spheroid culture growth (fluorescence intensity)", "details": "read-out: LC50; 3D Cultures, Tumor Alone, Panc10.05, D12 curves"}, "Pa03C": {"tested_on": "Pa03C", "test": "3D tumor spheroid culture growth (fluorescence intensity)"}},
  "note": "Where two headings read alike, the source gives them in different places.",
  "data": [
    {"smiles": "CCCCCCCCC/C(=C\\C1=C(C)C(=O)C(OC)=C(OC)C1=O)C(=O)O", "note": "[APX3330]", "values": [
      {"measurement": "tumor volume", "setting": "[1]; Ruxolitinib (Rux) in combination with APX3330", "result": "reduction in tumor volume"},
      {"measurement": "average tumor size", "setting": "[1]; combination therapy: 50 mg/kg APX3330 BID with 50 mg/kg Rux SID, day 31", "result": 1200, "unit": "mm^3"},
      {"measurement": "average tumor size", "setting": "[1]; treatment alone, 50 mg/kg, day 28", "result": 1750, "unit": "mm³"},
      {"measurement": "drug combination synergy (Chou-Talalay, CalcuSyn)", "setting": "[2]; APX3330 75 uM and 50 uM spiked with 50 uM CPI-613, 72 hours", "result": "synergy was observed"},
      {"measurement": "drug combination synergy (Chou-Talalay, CalcuSyn)", "setting": "[2]; all but one APX3330 dosage (6.3 uM), spiked with 75 uM CPI-613, 72 hours", "result": "Synergy was observed"},
      {"measurement": "tolerability of combination therapy", "setting": "pancreatic tumor", "result": "well-tolerated"},
      {"measurement": "tumor volume at sacrifice vs single agents alone", "setting": "pancreatic tumor", "result": "significantly decreased tumor volume"},
      {"measurement": "oxaliplatin induced loss of myenteric neurons in the colon", "setting": "[3]; CRC mice", "result": "alleviated oxaliplatin induced loss of myenteric neurons"},
      {"measurement": "tumor cell killing vs oxaliplatin alone", "setting": "[3]; oxaliplatin with APX3330", "result": "dramatic and significantly increased tumor cell killing"},
      {"measurement": "area of the CAFs", "setting": "CAFs (CAF19 cells); APX3330 alone, co-culture with Pa03C", "result": "reduction in the area of the CAFs"},
      {"measurement": "CC50", "setting": "CAFs (CAF19 cells); co-culture with Pa03C, D12 curves", "result": 57.3, "unit": "µM"},
      {"measurement": "CC50", "setting": "CAFs (CAF19 cells); co-culture with Panc10.05, D12 curves", "result": 59.4, "unit": "µM"},
      {"measurement": "CC50", "setting": "Panc10.05", "result": 44.5, "unit": "µM"},
      {"measurement": "effect of gemcitabine with APX3330 on tumor", "setting": "Pa03C; Pa03C in co-culture with CAFs, APX3330 50 μM", "result": "dose-dependent combination effect"},
      {"measurement": "CC50", "setting": "Pa03C; read-out: LC50, 3D Cultures, Tumor Alone, Pa03C, D12 curves", "result": 37.9, "unit": "µM"}
    ]}
  ]
}
